Where two headings read alike, the source gives them in different places.
Legend:
[1] = crosses the placental barrier; cited from earlier work
[2] = test system: day 7 placental organoids; test: Drug toxicity response, CellTiter-Glo luminescent cell viability, day 7 placental organoids; conditions: Homo sapiens, read-out: IC50 (drug toxicity based on cell survival)
From the text: It is well-established that ethical constraints hamper the testing of drugs on pregnant women. Furthermore, maternal drug usage is known to promote a range of conditions, such as fetal drug tolerance, antibiotic resistance, toxicity, obesity and diabetes. While it is rendered safe to use certain drugs during pregnancy, the actual short as well as long-term effects of these drugs on fetal health cannot be currently studied. Therefore, as an application of the placental organoids systems in drug toxicity testing, these organoids were treated with commonly used compounds such as nicotine, acetaminophen, ibuprofen and lumiracoxib. […] Acetaminophen, also known as paracetamol, is usually considered as a safe antipyretic and analgesic medicine for pregnant women. However, acetaminophen and its metabolites easily cross the placenta and are potentially toxic as it has previously been detected in the fetus and is implicated in adverse birth and later life health outcomes. Nonsteroidal anti-inflammatory drugs (NSAIDs) such as Ibuprofen are the most commonly used medications for the treatment of pain, inflammation and fever during pregnancy. Ibuprofen readily enters fetal circulation, raising concerns about its long-term effects on fetal health and development. While the use of another NSAID, Lumiracoxib, has not been adequately investigated. […] Therefore, it has been recommended that it should not be used during the first two trimesters of pregnancy unless it justifies the potential risk to the fetus. Day 7and day 15 placental organoids were treated with increasing doses of drugs such as nicotine, acetaminophen, ibuprofen and lumiracoxib. The drug toxicity and IC50 value of the drugs was determined based on cell survival at 24 and 48 hours post drug exposure.
Placental organoids (12-15 organoids/well) were treated with different concentrations of nicotine (0.1, 0.5, 1, 5, 10, 20 mg/mL), acetaminophen (0.01, 0.1, 1, 5, 10, 20 mM), ibuprofen (25, 50, 100, 200, 400, 800 mg/mL) and lumiracoxib (0.01, 0.1, 1, 5, 10, 20 mM) for 24 and 48 hours to determine the IC50 value for drug toxicity. Post-incubation with the drugs for 24 and 48 hours respectively, the cell viability was determined using a CellTiter-Glo Luminescent cell viability assay (Promega #G7570). Briefly, cell supernatant was mixed with equal volume of CellTiter-Glo reagent for 2 minutes on an orbital shaker, incubated for 10 minutes in dark at room temperature and then the luminescence was determined using a Tecan plate reader (Tecan Spark).

CN1CCCC1c1cccnc1 (centres unmarked) [nicotine]
fetal concentration higher than mother [1]: 15%
IC50 ([2]; 24 hours post drug exposure): 5700 µg/mL
IC50 ([2]; 48 hours post drug exposure): 1190 µg/mL

CC(=O)Nc1ccc(O)cc1 [acetaminophen]
IC50 ([2]; 24 hours post drug exposure): 2680 µM
IC50 ([2]; 48 hours post drug exposure): 1110 µM

Cc1ccc(Nc2c(F)cccc2Cl)c(CC(=O)O)c1 [lumiracoxib]
IC50 ([2]; 24 hours post drug exposure): 841 µM
IC50 ([2]; 48 hours post drug exposure): 220 µM

CC(C)Cc1ccc(C(C)C(=O)O)cc1 (centres unmarked) [ibuprofen]
IC50 ([2]; 48 hours post drug exposure): 45300 µg/mL
